Laboratory results as given in ChEMBL document CHEMBL1275576, “In vitro activity of tomopenem (CS-023/RO4908463) against anaerobic bacteria” (Antimicrob Agents Chemother, 2009).

How the values were obtained:
[1] = system: Enterocloster clostridioformis; experiment: Antimicrobial activity against Clostridium clostridioforme NCTC 11224 by agar dilution method in presence of 5% laked sheep blood; format: functional
Bifidobacterium bifidum = experiment: Antimicrobial activity against Bifidobacterium bifidum JCM 1255 by agar dilution method in presence of 5% laked sheep blood; format: functional
Bacteroides fragilis [2] = experiment: Antimicrobial activity against Bacteroides fragilis GAI 0558 by agar dilution method in presence of 5% laked sheep blood; format: functional
[3] = system: Limosilactobacillus fermentum; experiment: Antimicrobial activity against Lactobacillus fermentum JCM 1173 by agar dilution method in presence of 5% laked sheep blood; format: functional
Capnocytophaga ochracea = experiment: Antimicrobial activity against Capnocytophaga ochracea GAI 5586 by agar dilution method in presence of 5% laked sheep blood; format: functional
Cutibacterium acnes = experiment: Antimicrobial activity against Propionibacterium acnes ATCC 11828 by agar dilution method in presence of 5% laked sheep blood; format: functional
Bacteroides fragilis [4] = experiment: Antimicrobial activity against Bacteroides fragilis GAI 5562 by agar dilution method in presence of 5% laked sheep blood; format: functional
[5] = Antimicrobial activity against Bifidobacterium adolescentis ATCC 15703 by agar dilution method in presence of 5% laked sheep blood; format: functional
[6] = Antimicrobial activity against Finegoldia magna ATCC 29328 by agar dilution method in presence of 5% laked sheep blood; format: functional
Bifidobacterium breve = experiment: Antimicrobial activity against Bifidobacterium breve ATCC 15700 by agar dilution method in presence of 5% laked sheep blood; format: functional
Prevotella bivia = experiment: Antimicrobial activity against Prevotella bivia ATCC 29303 by agar dilution method in presence of 5% laked sheep blood; format: functional; conditions: DSM 20514
[7] = system: Streptococcus intermedius; experiment: Antimicrobial activity against Streptococcus intermedius ATCC 27335 by agar dilution method in presence of 5% laked sheep blood; format: functional
[8] = system: Fusobacterium necrophorum; experiment: Antimicrobial activity against Fusobacterium necrophorum ATCC 25286 by agar dilution method in presence of 5% laked sheep blood; format: functional
Gemella morbillorum = experiment: Antimicrobial activity against Gemella morbillorum ATCC 27824 by agar dilution method in presence of 5% laked sheep blood; format: functional
[9] = Antimicrobial activity against Desulfovibrio piger DSM 749 by agar dilution method in presence of 5% laked sheep blood; format: functional, Desulfovibrio piger ATCC 29098
Bacteroides fragilis [10] = experiment: Antimicrobial activity against Bacteroides fragilis GAI 10150 by agar dilution method in presence of 5% laked sheep blood; format: functional
Campylobacter gracilis = experiment: Antimicrobial activity against Campylobacter gracilis JCM 8538 by agar dilution method in presence of 5% laked sheep blood; format: functional
[11] = system: Limosilactobacillus reuteri; experiment: Antimicrobial activity against Lactobacillus reuteri JCM 1112 by agar dilution method in presence of 5% laked sheep blood; format: functional
[12] = Antimicrobial activity against Parabacteroides distasonis ATCC 8503 by agar dilution method in presence of 5% laked sheep blood; format: functional
Prevotella intermedia = experiment: Antimicrobial activity against Prevotella intermedia ATCC 25611 by agar dilution method in presence of 5% laked sheep blood; format: functional
[13] = system: Bifidobacterium pseudolongum; experiment: Antimicrobial activity against Bifidobacterium pseudolongum ATCC 25526 by agar dilution method in presence of 5% laked sheep blood; format: functional
Bacteroides fragilis [14] = experiment: Antimicrobial activity against carbapenemase-producing Bacteroides fragilis GAI 30079 by agar dilution method in presence of 5% laked sheep blood; format: functional
Bacteroides fragilis [15] = experiment: Antimicrobial activity against Bacteroides fragilis NCTC 10581 by agar dilution method in presence of 5% laked sheep blood; format: functional
Parvimonas micra = experiment: Antimicrobial activity against Parvimonas micra VPI 5464-1 by agar dilution method in presence of 5% laked sheep blood; format: functional
[16] = system: Porphyromonas asaccharolytica; experiment: Antimicrobial activity against Porphyromonas asaccharolyticus ATCC 25260 by agar dilution method in presence of 5% laked sheep blood; format: functional; conditions: DSM 20707
Atopobium parvulum = experiment: Antimicrobial activity against Atopobium parvulum VPI 0546 by agar dilution method in presence of 5% laked sheep blood; format: functional; conditions: Lancefieldella parvula
Hoylesella oralis = experiment: Antimicrobial activity against Prevotella oralis ATCC 33269 by agar dilution method in presence of 5% laked sheep blood; format: functional
[17] = system: Bacteroides thetaiotaomicron; experiment: Antimicrobial activity against Bacteroides thetaiotaomicron ATCC 29741 by agar dilution method in presence of 5% laked sheep blood; format: functional
[18] = Antimicrobial activity against Bifidobacterium longum subsp. longum ATCC 15707 by agar dilution method in presence of 5% laked sheep blood; format: functional
Peptoniphilus indolicus = experiment: Antimicrobial activity against Peptoniphilus indolicus GAI 0915 by agar dilution method in presence of 5% laked sheep blood; format: functional
Veillonella parvula = experiment: Antimicrobial activity against Veillonella parvula ATCC 10790 by agar dilution method in presence of 5% laked sheep blood; format: functional
Prevotella oris = experiment: Antimicrobial activity against Prevotella oris ATCC 33573 by agar dilution method in presence of 5% laked sheep blood; format: functional; conditions: Segatella oris
[19] = system: Peptoniphilus asaccharolyticus; experiment: Antimicrobial activity against Peptoniphilus asaccharolyticus WAL 3218 by agar dilution method in presence of 5% laked sheep blood; format: functional
Bacteroides fragilis [20] = experiment: Antimicrobial activity against carbapenemase-producing Bacteroides fragilis GAI 30144 by agar dilution method in presence of 5% laked sheep blood; format: functional
[21] = system: Desulfovibrio desulfuricans; experiment: Antimicrobial activity against Desulfovibrio desulfuricans ATCC 29577 by agar dilution method in presence of 5% laked sheep blood; format: functional
[22] = system: Campylobacter ureolyticus; experiment: Antimicrobial activity against Bacteroides ureolyticus NCTC 10941 by agar dilution method in presence of 5% laked sheep blood; format: functional
Anaerococcus prevotii = experiment: Antimicrobial activity against Anaerococcus prevotii ATCC 9321 by agar dilution method in presence of 5% laked sheep blood; format: functional
Bacteroides uniformis = experiment: Antimicrobial activity against Bacteroides uniformis ATCC 8492 by agar dilution method in presence of 5% laked sheep blood; format: functional
Phocaeicola vulgatus = experiment: Antimicrobial activity against Bacteroides vulgatus GAI 0673 by agar dilution method in presence of 5% laked sheep blood; format: functional
Bacteroides fragilis [23] = experiment: Antimicrobial activity against Bacteroides fragilis ATCC 25285 by agar dilution method in presence of 5% laked sheep blood; format: functional; conditions: NCTC 9343
[24] = system: Bacteroides heparinolyticus; experiment: Antimicrobial activity against Prevotella heparinolytica ATCC 35895 by agar dilution method in presence of 5% laked sheep blood; format: functional
Bacteroides ovatus = experiment: Antimicrobial activity against Bacteroides ovatus ATCC 8483 by agar dilution method in presence of 5% laked sheep blood; format: functional
Fusobacterium varium = experiment: Antimicrobial activity against Fusobacterium varium ATCC 8501 by agar dilution method in presence of 5% laked sheep blood; format: functional
Thomasclavelia ramosa = experiment: Antimicrobial activity against Clostridium ramosum ATCC 25582 by agar dilution method in presence of 5% laked sheep blood; format: functional
Lactobacillus salivarius = experiment: Antimicrobial activity against Lactobacillus salivarius subsp. salivarius JCM 1231 by agar dilution method in presence of 5% laked sheep blood; format: functional; conditions: Ligilactobacillus salivarius
[25] = system: Propionibacterium granulosum; experiment: Antimicrobial activity against Propionibacterium granulosum ATCC 25564 by agar dilution method in presence of 5% laked sheep blood; format: functional; conditions: Cutibacterium granulosum
Bilophila wadsworthia = experiment: Antimicrobial activity against Bilophila wadsworthia WAL 7959 by agar dilution method in presence of 5% laked sheep blood; format: functional

CCC[C@@H]1C[C@@H](C(=O)N[C@@H]([C@H]2O[C@H](SC)[C@H](O)[C@@H](O)[C@H]2O)[C@H](C)Cl)N(C)C1 [CLINDAMYCIN]
MIC [1]: 0.25 µg/mL
MIC (Bifidobacterium bifidum): ≤ 0.03 µg/mL
MIC (Bacteroides fragilis [2]): 0.5 µg/mL
MIC [3]: ≤ 0.03 µg/mL
MIC (Capnocytophaga ochracea): ≤ 0.03 µg/mL
MIC (Cutibacterium acnes): 0.125 µg/mL
MIC (Bacteroides fragilis [4]): 0.5 µg/mL
MIC [5]: ≤ 0.03 µg/mL
MIC [6]: 2 µg/mL
MIC (Bifidobacterium breve): ≤ 0.03 µg/mL
MIC (Prevotella bivia): ≤ 0.03 µg/mL
MIC [7]: 0.25 µg/mL
MIC [8]: ≤ 0.03 µg/mL
MIC (Gemella morbillorum): 0.06 µg/mL
MIC [9]: 0.06 µg/mL
MIC (Bacteroides fragilis [10]): 0.5 µg/mL
MIC (Campylobacter gracilis): 0.125 µg/mL
MIC [11]: ≤ 0.03 µg/mL
MIC [12]: 0.06 µg/mL
MIC (Prevotella intermedia): ≤ 0.03 µg/mL
MIC [13]: ≤ 0.03 µg/mL
MIC (Bacteroides fragilis [14]): > 128 µg/mL
MIC (Bacteroides fragilis [15]): ≤ 0.03 µg/mL
MIC (Parvimonas micra): 0.25 µg/mL
MIC [16]: ≤ 0.03 µg/mL
MIC (Atopobium parvulum): 1 µg/mL
MIC (Hoylesella oralis): ≤ 0.03 µg/mL
MIC [17]: 4 µg/mL
MIC [18]: ≤ 0.03 µg/mL
MIC (Peptoniphilus indolicus): 32 µg/mL
MIC (Veillonella parvula): ≤ 0.03 µg/mL
MIC (Prevotella oris): ≤ 0.03 µg/mL
MIC [19]: > 128 µg/mL
MIC (Bacteroides fragilis [20]): 2 µg/mL
MIC [21]: 0.5 µg/mL
MIC [22]: 0.25 µg/mL
MIC (Anaerococcus prevotii): 0.125 µg/mL
MIC (Bacteroides uniformis): ≤ 0.03 µg/mL
MIC (Phocaeicola vulgatus): 0.06 µg/mL
MIC (Bacteroides fragilis [23]): 1 µg/mL
MIC [24]: ≤ 0.03 µg/mL
MIC (Bacteroides ovatus): 0.5 µg/mL
MIC (Fusobacterium varium): 4 µg/mL
MIC (Thomasclavelia ramosa): 8 µg/mL
MIC (Lactobacillus salivarius): 0.06 µg/mL
MIC [25]: ≤ 0.03 µg/mL
MIC (Bilophila wadsworthia): 0.5 µg/mL

Cc1ncc([N+](=O)[O-])n1CCO [METRONIDAZOLE]
MIC [1]: ≤ 0.015 µg/mL
MIC (Bifidobacterium bifidum): 4 µg/mL
MIC (Bacteroides fragilis [2]): 0.5 µg/mL
MIC [3]: > 128 µg/mL
MIC (Capnocytophaga ochracea): 1 µg/mL
MIC (Cutibacterium acnes): > 128 µg/mL
MIC (Bacteroides fragilis [4]): 1 µg/mL
MIC [5]: 64 µg/mL
MIC [6]: 1 µg/mL
MIC (Bifidobacterium breve): 16 µg/mL
MIC (Prevotella bivia): 2 µg/mL
MIC [7]: > 128 µg/mL
MIC [8]: 0.125 µg/mL
MIC (Gemella morbillorum): > 128 µg/mL
MIC [9]: 0.25 µg/mL
MIC (Bacteroides fragilis [10]): 1 µg/mL
MIC (Campylobacter gracilis): 0.5 µg/mL
MIC [11]: > 128 µg/mL
MIC [12]: 1 µg/mL
MIC (Prevotella intermedia): 1 µg/mL
MIC [13]: > 128 µg/mL
MIC (Bacteroides fragilis [14]): 1 µg/mL
MIC (Bacteroides fragilis [15]): 1 µg/mL
MIC (Parvimonas micra): 1 µg/mL
MIC [16]: 0.25 µg/mL
MIC (Atopobium parvulum): 0.5 µg/mL
MIC (Hoylesella oralis): 0.125 µg/mL
MIC [17]: 1 µg/mL
MIC [18]: 8 µg/mL
MIC (Peptoniphilus indolicus): 0.5 µg/mL
MIC (Veillonella parvula): 2 µg/mL
MIC (Prevotella oris): 0.25 µg/mL
MIC [19]: 1 µg/mL
MIC (Bacteroides fragilis [20]): 1 µg/mL
MIC [21]: 0.06 µg/mL
MIC [22]: 2 µg/mL
MIC (Anaerococcus prevotii): 2 µg/mL
MIC (Bacteroides uniformis): 0.5 µg/mL
MIC (Phocaeicola vulgatus): 0.25 µg/mL
MIC (Bacteroides fragilis [23]): 0.5 µg/mL
MIC [24]: 0.06 µg/mL
MIC (Bacteroides ovatus): 2 µg/mL
MIC (Fusobacterium varium): 0.25 µg/mL
MIC (Thomasclavelia ramosa): 2 µg/mL
MIC (Lactobacillus salivarius): > 128 µg/mL
MIC [25]: > 128 µg/mL
MIC (Bilophila wadsworthia): 0.06 µg/mL
